Source: ChEMBL document CHEMBL4715719, “Synthesis and biological properties of polyamine modified flavonoids as hepatocellular carcinoma inhibitors” (Eur J Med Chem, 2016)
Activity calls are given as the source filed them. No cut-off for these calls is given here.

Columns and labels:
HepG2 [1] = assay: Antiproliferative activity against human HepG2 cells assessed as inhibition of cell proliferation measured after 48 hrs by MTT assay; type: functional, cell-based; conditions: HepG2, 48 h
H22 [2] = assay: Potentiation of aspirin-induced antitumor activity against mouse H22 cells implanted in Kunming mouse assessed as reduction in tumor weight at 10 mg/kg, iv administered for 7 consecutive days starting from day 8 post inoculation cotreated with aspirin at 10 mg/kg and measured after 16 days (reference value: 1.37 +/- 0.60 g); type: functional; conditions: time 8 day
Mus musculus [3] = assay: Upregulation of phosphorylated JNK in Kunming mouse implanted with mouse H22 cells assessed as activation of p53 measured after 48 hrs in presence of aspirin by immunofluorescence analysis; type: functional; conditions: dose 10-30 µM
H22 [4] = assay: Antimetastatic activity against mouse H22 cells implanted in Kunming mouse assessed as inhibition of metastasis at 10 mg/kg, iv administered for 7 consecutive days starting from day 11 post inoculation and measured after 18 days relative to control; type: functional; conditions: 192 h, time 8 day
[5] = Cytotoxicity against human QSG7701 cells assessed as inhibition of cell proliferation at 100 uM measured after 48 hrs by MTT assay relative to control; type: cell-based
HepG2 [6] = assay: Induction of apoptosis in human HepG2 cells assessed as activation of caspase 8 at 50 to 70 uM measured after 48 hrs by immunofluorescence assay; type: functional, cell-based; conditions: dose 50-70 µM
H22 [7] = assay: Antitumor activity against mouse H22 cells implanted in Kunming mouse assessed as tumor growth inhibition at 10 mg/kg, iv administered for 7 consecutive days starting from day 8 post inoculation and measured after 16 days relative to control; type: functional; conditions: 192 h, time 8 day, read-out: TGI
[8] = Toxicity in Kunming mouse implanted with mouse H22 cells assessed as change in body weight at 10 mg/kg, iv administered for 7 consecutive days starting from day 11 post inoculation cotreated with DFMO at 200 mg/kg and measured after 18 days (reference value: -0.3 %); type: organism-based; conditions: in vivo, 192 h, time 8 day
[9] = Toxicity in Kunming mouse implanted with mouse H22 cells assessed as change in body weight at 10 mg/kg, iv administered for 7 consecutive days starting from day 11 post inoculation cotreated with aspirin at 10 mg/kg and measured after 18 days (reference value: -1.2 %); type: organism-based; conditions: in vivo, 192 h, time 8 day
[10] = Antiproliferative activity against mouse H22 cells assessed as inhibition of cell proliferation measured after 48 hrs in presence of 800 uM aspirin by MTT assay; type: functional, cell-based
[11] = Toxicity in Kunming mouse implanted with mouse H22 cells assessed mouse mortality at 10 mg/kg, iv administered for 7 consecutive days starting from day 8 post inoculation cotreated with DFMO at 200 mg/kg and measured after 16 days; type: organism-based; conditions: in vivo, 192 h, time 8 day
Mus musculus [12] = assay: Upregulation of phosphorylated p38 in Kunming mouse implanted with mouse H22 cells assessed as activation of p53 measured after 48 hrs by immunofluorescence analysis; type: functional; conditions: dose 10-30 µM
[13] = Toxicity in Kunming mouse implanted with mouse H22 cells assessed as change in mouse body weight at 10 mg/kg, iv administered for 7 consecutive days starting from day 8 post inoculation and measured after 16 days (reference value: 21 %); type: organism-based; conditions: in vivo, 192 h, time 8 day

SMILES: Cl.Cl.NCCCNCC(=O)NCc1cccc2c(=O)cc(-c3cccc4ccccc34)oc12
- IC50 (HepG2 [1]): 65 µM
- Activity (H22 [2]): 0.66 g
- Activity (Mus musculus [3]): Active
- inhibition in vivo at 10 mg/kg (H22 [4]): 29.3%
- inhibition at 48 h, 100 µM [5]: 41.8%
- Activity (HepG2 [6]): inactive
- inhibition in vivo at 10 mg/kg (H22 [7]): 39.2%
- Activity [8]: 1.2%
- Activity [9]: 4.3%
- IC50 [10]: 21.1 µM
- Activity [11]: Non-Toxic
- Activity (Mus musculus [12]): Dose-dependent effect
- Activity [13]: 4%
